Holding throughout (type): biochemical
The target in test [1] is T1, JAK1 (aa 850-1154, catalytic domain, GST-tag) (Homo sapiens, UniProt P23458).
T1 construct: JAK1 (aa 850-1154) and TYK2 (aa 871-1187) are expressed with an N-terminally fused GST-tag; GST (N); purchased Carna Biosciences, Inc; host or cells: baculovirus expression system
Description: JAK kinase assay (HTRF, phosphorylation of TK substrate-biotin), JAK1. The following applies: ATP at Km (7 μM); read-out: JAK1 kinase inhibitory activity (EC50 indicator). The method, boiled down:
(§1)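 Catalytic-domain kinases phosphorylated 1 μM biotin-TK substrate at ATP Km (JAK1 7 μM, JAK2 4 μM, JAK3 2 μM, TYK2 13 μM) in Hepes pH 7.0 with DTT and MgCl2, for 20-30 min at RT; JAK1 and TYK2 also had 50 nM SEB. Detection was by HTRF (streptavidin-XL665/Cryptate antibody) overnight, giving EC50.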
Background: In TR-FRET formats the signal depends on donor and acceptor labels being close together.

The target of test [2] is T2, JAK2 (catalytic domain, His-tag) (Homo sapiens, UniProt O60674).
T2 construct: All four purified enzymes contain only the catalytic domain; His (N); purchased Carna Biosciences, Inc; host or cells: baculovirus expression system
T2 sequence (O60674 849-1124 limits assumed): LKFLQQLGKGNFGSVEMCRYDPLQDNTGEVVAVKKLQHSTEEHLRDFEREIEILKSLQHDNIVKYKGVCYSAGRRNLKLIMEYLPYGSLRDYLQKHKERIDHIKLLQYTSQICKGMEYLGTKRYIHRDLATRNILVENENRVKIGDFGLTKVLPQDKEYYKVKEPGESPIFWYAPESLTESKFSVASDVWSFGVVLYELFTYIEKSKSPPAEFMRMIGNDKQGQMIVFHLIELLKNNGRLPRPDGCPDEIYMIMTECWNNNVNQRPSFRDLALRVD
In words: JAK kinase assay (HTRF, phosphorylation of TK substrate-biotin), JAK2. The note with it: ATP at Km (4 μM); read-out: JAK2 kinase inhibitory activity (EC50 indicator). The method, boiled down: as §1

In test [3] the target is T3, JAK3 (catalytic domain, His-tag) (Homo sapiens, UniProt P52333).
T3 construct: All four purified enzymes contain only the catalytic domain; His (N); purchased Carna Biosciences, Inc; host or cells: baculovirus expression system
T3 sequence (P52333 822-1111 limits assumed): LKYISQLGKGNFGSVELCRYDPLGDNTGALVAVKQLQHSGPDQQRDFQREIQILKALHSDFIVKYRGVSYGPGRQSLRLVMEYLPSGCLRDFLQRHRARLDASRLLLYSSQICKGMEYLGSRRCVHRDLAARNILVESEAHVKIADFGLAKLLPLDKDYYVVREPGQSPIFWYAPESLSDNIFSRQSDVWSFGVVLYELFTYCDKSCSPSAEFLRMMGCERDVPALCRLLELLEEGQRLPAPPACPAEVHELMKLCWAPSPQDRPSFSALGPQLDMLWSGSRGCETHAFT
In words: JAK kinase assay (HTRF, phosphorylation of TK substrate-biotin), JAK3. The note with it: ATP at Km (2 μM); read-out: JAK3 kinase inhibitory activity (EC50 indicator). An outline of the steps: as §1

Test [4] addresses T4, TYK2 (aa 871-1187, catalytic domain, GST-tag) (Homo sapiens, UniProt P29597).
T4 construct: JAK1 (aa 850-1154) and TYK2 (aa 871-1187) are expressed with an N-terminally fused GST-tag; GST (N); purchased Carna Biosciences, Inc; host or cells: baculovirus expression system
T4 sequence (P29597 871-1187): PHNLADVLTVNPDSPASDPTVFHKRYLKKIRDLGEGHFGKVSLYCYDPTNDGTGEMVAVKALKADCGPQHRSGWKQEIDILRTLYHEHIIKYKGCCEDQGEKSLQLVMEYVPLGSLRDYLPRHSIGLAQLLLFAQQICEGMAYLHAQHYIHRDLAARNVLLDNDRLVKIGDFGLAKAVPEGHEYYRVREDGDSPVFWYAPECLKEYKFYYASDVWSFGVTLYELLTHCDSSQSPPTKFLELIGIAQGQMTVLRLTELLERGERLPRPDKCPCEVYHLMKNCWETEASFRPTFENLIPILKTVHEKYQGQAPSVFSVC
In words: JAK kinase assay (HTRF, phosphorylation of TK substrate-biotin), TYK2. The note with it: ATP at Km (13 μM); read-out: TYK2 kinase inhibitory activity (EC50 indicator). An outline of the steps: as §1

Bounds are passed on as bounds.

Broadly, the EC50 is the concentration needed to bring the measured effect to its halfway point.

T1 sequence (P23458 850-1154): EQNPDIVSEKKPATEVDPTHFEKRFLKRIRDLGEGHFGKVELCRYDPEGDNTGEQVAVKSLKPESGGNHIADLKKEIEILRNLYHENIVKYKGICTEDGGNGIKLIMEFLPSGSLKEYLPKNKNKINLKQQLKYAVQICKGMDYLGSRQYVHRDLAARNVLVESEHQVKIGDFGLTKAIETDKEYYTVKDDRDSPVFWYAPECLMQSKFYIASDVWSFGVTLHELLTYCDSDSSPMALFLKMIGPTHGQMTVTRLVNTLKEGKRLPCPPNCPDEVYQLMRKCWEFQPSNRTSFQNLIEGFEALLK

With `Cc1cnc(C(=O)N2[C@@H]3CC[C@H]2CN(c2ncnc4[nH]ccc24)C3)cn1` [Example 74, (5-Methyl-pyrazin-2-yl)-[3-(7H-pyrrolo[2,3-d]pyrimidin-4-yl)-3,8-diaza-bicyclo[3.2.1]oct-8-yl]-methanone], the EC50 was 100 to 500 nM in test [1], 100 to 500 nM in test [2], > 500 nM in test [3] and > 500 nM in test [4].
`O=C(c1cc2ccccc2s1)N1CCN(c2ncnc3[nH]ccc23)CC12CCCC2` [Example 75, Benzo[b]thiophen-2-yl-[9-(7H-pyrrolo[2,3-d]pyrimidin-4-yl)-6,9-diaza-spiro[4.5]dec-6-yl]-methanone]: the 50% effective concentration (EC50) in test [1], in test [2], in test [3] and in test [4] was > 500 nM throughout.
For the compound `N#Cc1cccc(CS(=O)(=O)N2CCN(c3ncnc4[nH]ccc34)CC23CC3)c1` [Example 76, 3-[7-(7H-Pyrrolo[2,3-d]pyrimidin-4-yl)-4,7-diaza-spiro[2.5]octane-4-sulfonylmethyl]-benzonitrile], the EC50 in test [1] was < 100 nM; in test [2], < 100 nM; in test [3], 100 to 500 nM; in test [4], > 500 nM.
In the case of `N#Cc1cccc(CS(=O)(=O)N2[C@@H]3CC[C@H]2CN(c2ncnc4[nH]ccc24)C3)c1` [Example 77, 3-[3-(7H-Pyrrolo[2,3-d]pyrimidin-4-yl)-3,8-diaza-bicyclo[3.2.1]octane-8-sulfonylmethyl]-benzonitrile], the EC50 is < 100 nM in test [1], < 100 nM in test [2], 100 to 500 nM in test [3] and > 500 nM in test [4].
On to `N#Cc1ccc(CS(=O)(=O)N2[C@@H]3CC[C@H]2CN(c2ncnc4[nH]ccc24)C3)cc1` [Example 78, 4-[3-(7H-Pyrrolo[2,3-d]pyrimidin-4-yl)-3,8-diaza-bicyclo[3.2.1]octane-8-sulfonylmethyl]-benzonitrile], for which the EC50 was < 100 nM in test [1], 100 to 500 nM in test [2], 100 to 500 nM in test [3] and > 500 nM in test [4].
For `N#Cc1ccc(CS(=O)(=O)N2CCN(c3ncnc4[nH]ccc34)CC23CC3)cc1` [Example 79, 4-[7-(7H-Pyrrolo[2,3-d]pyrimidin-4-yl)-4,7-diaza-spiro[2.5]octane-4-sulfonylmethyl]-benzonitrile], the EC50 in test [1] is < 100 nM; in test [2], < 100 nM; in test [3], 100 to 500 nM; in test [4], > 500 nM.
Regarding `O=C(c1cc2ccccc2s1)N1CCN(c2ccnc3[nH]ccc23)CC12CC2` [Example 82, Benzo[b]thiophen-2-yl-[7-(1H-pyrrolo[2,3-b]pyridin-4-yl)-4,7-diaza-spiro[2.5]oct-4-yl]-methanone], the EC50 is 100 to 500 nM in test [1], 100 to 500 nM in test [2], > 500 nM in test [3] and > 500 nM in test [4].
Regarding `O=C(O)C1(C(=O)N2CCN(c3ncnc4[nH]ccc34)CC23CC3)CC1` [Example 85, 1-[7-(7H-Pyrrolo[2,3-d]pyrimidin-4-yl)-4,7-diaza-spiro[2.5]octane-4-carbonyl]-cyclopropanecarboxylic acid], the EC50 was > 500 nM in test [1], 100 to 500 nM in test [2], > 500 nM in test [3] and > 500 nM in test [4].
`CN(CC#N)C(=O)C1(C(=O)N2CCN(c3ncnc4[nH]ccc34)CC23CC3)CC1` [Example 86, 1-[7-(7H-Pyrrolo[2,3-d]pyrimidin-4-yl)-4,7-diaza-spiro[2.5]octane-4-carbonyl]-cyclopropanecarboxylic acid cyanomethyl-methyl-amide]: the EC50 in test [1] is > 500 nM; in test [2], 100 to 500 nM; in test [3], > 500 nM; in test [4], > 500 nM.
As to `CN(CCC#N)C(=O)C1(C(=O)N2CCN(c3ncnc4[nH]ccc34)CC23CC3)CC1` [Example 87, 1-[7-(7H-Pyrrolo[2,3-d]pyrimidin-4-yl)-4,7-diaza-spiro[2.5]octane-4-carbonyl]-cyclopropanecarboxylic acid (2-cyano-ethyl)-methyl-amide], the EC50 in test [1], in test [2], in test [3] and in test [4] was > 500 nM in each case.
As to `N#CC1CCN(C(=O)C2(C(=O)N3CCN(c4ncnc5[nH]ccc45)CC34CC4)CC2)C1` (centres unmarked) [Example 88, 1-{1-[7-(7H-Pyrrolo[2,3-d]pyrimidin-4-yl)-4,7-diaza-spiro[2.5]octane-4-carbonyl]-cyclopropanecarbonyl}-pyrrolidine-3-carbonitrile], the EC50 was > 500 nM in test [1], 100 to 500 nM in test [2], > 500 nM in test [3] and > 500 nM in test [4].
On to `CC#CCOC(=O)N1CCN(c2ncnc3[nH]ccc23)CC12CC2` [Example 89, 7-(7H-Pyrrolo[2,3-d]pyrimidin-4-yl)-4,7-diaza-spiro[2.5]octane-4-carboxylic acid but-2-ynyl ester], for which the EC50 in test [1] was < 100 nM; in test [2] it was < 100 nM; in test [3] it was 100 to 500 nM; in test [4] it was > 500 nM.
On to `Cc1ccsc1C(=O)N1CCN(c2ncnc3[nH]ccc23)CC12CC2` [Example 90, (3-Methyl-thiophen-2-yl)[7-(7H-pyrrolo[2,3-d]pyrimidin-4-yl)-4,7-diaza-spiro[2.5]oct-4-yl]-methanone], for which the EC50 in test [1] is < 100 nM; in test [2], < 100 nM; in test [3], 100 to 500 nM; in test [4] it was 100 to 500 nM.
As for `Cc1ccc(C(=O)N2CCN(c3ncnc4[nH]ccc34)CC23CC3)s1` [Example 91, (5-Methyl-thiophen-2-yl)-[7-(7H-pyrrolo[2,3-d]pyrimidin-4-yl)-4,7-diaza-spiro[2.5]oct-4-yl]-methanone], the EC50 in test [1], in test [2], in test [3] and in test [4] was < 100 nM throughout.
Consider `N#Cc1ccc(C(=O)N2CCN(c3ncnc4[nH]ccc34)CC23CC3)c(F)c1` [Example 92, 3-Fluoro-4-[7-(7H-pyrrolo[2,3-d]pyrimidin-4-yl)-4,7-diaza-spiro[2.5]octane-4-carbonyl]-benzonitrile], for which the EC50 in test [1] is < 100 nM; in test [2], < 100 nM; in test [3], 100 to 500 nM; in test [4], 100 to 500 nM.
Regarding `CC(=O)Nc1nc(N2CCN(C(=O)Cc3ccc(C#N)cc3)C3(CC3)C2)c2cc[nH]c2n1` [Example 93, N-(4-{4-[2-(4-Cyano-phenyl)-acetyl]-4,7-diaza-spiro[2.5]oct-7-yl}-7H-pyrrolo[2,3-d]pyrimidin-2-yl)-acetamide], the EC50 was < 100 nM in test [1], < 100 nM in test [2], < 100 nM in test [3] and 100 to 500 nM in test [4].
For `N#CCN1CCCC(C(=O)N2CCN(c3ncnc4[nH]ccc34)CC23CC3)C1` (centres unmarked) [Example 94, {3-[7-(7H-Pyrrolo[2,3-d]pyrimidin-4-yl)-4,7-diaza-spiro[2.5]octane-4-carbonyl]-piperidin-1-yl}-acetonitrile], the EC50 in test [1] is 100 to 500 nM; in test [2], < 100 nM; in test [3], 100 to 500 nM; in test [4], 100 to 500 nM.
On to `N#CCCN1CCCC(C(=O)N2CCN(c3ncnc4[nH]ccc34)CC23CC3)C1` (centres unmarked) [Example 95, 3-{3-[7-(7H-Pyrrolo[2,3-d]pyrimidin-4-yl)-4,7-diaza-spiro[2.5]octane-4-carbonyl]-piperidin-1-yl}-propionitrile], for which the EC50 was 100 to 500 nM in test [1], 100 to 500 nM in test [2], > 500 nM in test [3] and > 500 nM in test [4].
For `COCCOCC(=O)Nc1nc(N2CCN(C(=O)Cc3ccc(C#N)cc3)C3(CC3)C2)c2cc[nH]c2n1` [Example 96, N-(4-{4-[2-(4-Cyano-phenyl)-acetyl]-4,7-diaza-spiro[2.5]oct-7-yl}-7H-pyrrolo[2,3-d]pyrimidin-2-yl)-2-(2-methoxy-ethoxy)-acetamide], the EC50 in test [1] is < 100 nM; in test [2], < 100 nM; in test [3], 100 to 500 nM; in test [4] it was > 500 nM.
As for `N#CCCN1CCC(C(=O)N2CCN(c3ncnc4[nH]ccc34)CC23CC3)CC1` [Example 97, 3-{4-[7-(7H-Pyrrolo[2,3-d]pyrimidin-4-yl)-4,7-diaza-spiro[2.5]octane-4-carbonyl]-piperidin-1-yl}-propionitrile], the half-maximal effective concentration (EC50) in test [1] was < 100 nM; in test [2], 100 to 500 nM; in test [3], 100 to 500 nM; in test [4], > 500 nM.
